The results in this text go back to ChEMBL document CHEMBL1154226, “Synthesis and evaluation of inhibitors of cytochrome P450 3A (CYP3A) for pharmacokinetic enhancement of drugs” (Bioorg Med Chem Lett, 2009).

Broadly, the IC50 is the concentration that gives 50% inhibition. A word on the Cmax: it is the peak of the concentration-time curve.

One data set deals with Liver microsomes. Kind of data set: Intrinsic clearance in human liver microsomes. The data set is classed as ADME, Microsome. For orientation: Microsomes from liver hold many membrane-bound enzymes, among them those of drug oxidation.
The next data set is filed under the species Canis familiaris. Particulars: dog, in vivo, po, 5 mg/kg.
Another data set in a line: in vivo. Particulars: Beagle, dog, po, 5 mg/kg.
A further data set deals with Cytochrome P450 3A4 (Homo sapiens, UniProt P08684). Kind of data set: Inhibition of human recombinant CYP3A4-mediated oxidation of 7-benzyloxyquinoline.
Chain of Cytochrome P450 3A4 (P08684 whole entry): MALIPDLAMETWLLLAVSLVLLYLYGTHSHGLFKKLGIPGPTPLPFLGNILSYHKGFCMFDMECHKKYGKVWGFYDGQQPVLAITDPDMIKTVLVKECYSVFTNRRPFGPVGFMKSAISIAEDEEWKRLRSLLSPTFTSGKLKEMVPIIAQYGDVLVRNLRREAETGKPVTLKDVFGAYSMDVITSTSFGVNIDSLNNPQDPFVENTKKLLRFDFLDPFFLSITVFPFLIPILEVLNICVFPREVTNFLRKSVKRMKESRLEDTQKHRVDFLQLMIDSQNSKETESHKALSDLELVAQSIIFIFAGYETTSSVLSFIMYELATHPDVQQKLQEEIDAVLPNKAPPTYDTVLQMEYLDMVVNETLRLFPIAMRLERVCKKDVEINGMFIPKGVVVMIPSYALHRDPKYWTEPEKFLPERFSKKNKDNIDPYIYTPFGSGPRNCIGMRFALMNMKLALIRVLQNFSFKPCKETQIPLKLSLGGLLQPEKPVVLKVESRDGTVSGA

`O=C(NC(Cc1ccccc1)CN(CC(Cc1ccccc1)NC(=O)OCc1cncs1)CC(Cc1ccccc1)NC(=O)OCc1cncs1)OCc1cncs1` (stereo not given) displayed an IC50 in the data set on Liver microsomes of 54 nM. The compound also showed an AUC in the data set filed under Canis familiaris of 0.06 µg/mL. The same compound registered a Cmax in the data set “in vivo” of 30 ng/mL.
For the compound `CCN(C[C@H](Cc1ccccc1)NC(=O)OCc1cnc[nH]1)C[C@H](Cc1ccccc1)NC(=O)OCc1cnc[nH]1`, the half-maximal inhibitory concentration (IC50) at Cytochrome P450 3A4 worked out at 348 nM.
On the same count and under the same terms, next, `CCN(C[C@H](CC(C)C)NC(=O)OCc1cncs1)C[C@H](CC(C)C)NC(=O)OCc1cncs1`: 136 nM; `CCN(C[C@H](Cc1ccccc1)NC(=O)OCc1cccs1)C[C@H](Cc1ccccc1)NC(=O)OCc1cccs1`: 741 nM.
In the case of `CCN(C[C@H](Cc1ccccc1)NC(=O)OCc1cncs1)C[C@H](Cc1ccccc1)NC(=O)OCc1cncs1`, the AUC in the data set filed under Canis familiaris stood at 1.38 µg/mL. Also, in the data set “in vivo”, the Cmax amounted to 610 ng/mL.
On to `CCN(CC(CC(=O)OC)NC(=O)OCc1cncs1)CC(CC(=O)OC)NC(=O)OCc1cncs1` (stereo not given), for which the 50% inhibitory concentration (IC50) on Cytochrome P450 3A4 came out at 88 nM.
On the same count and under the same terms, next, `CCN(CC(CC1CCCCC1)NC(=O)OCc1cncs1)CC(CC1CCCCC1)NC(=O)OCc1cncs1` (stereo not given): 66 nM; `CCN(C[C@H](Cc1ccccc1)NC(=O)OCc1cnco1)C[C@H](Cc1ccccc1)NC(=O)OCc1cnco1`: 274 nM; `CCN(CCNC(=O)OCc1cncs1)CCNC(=O)OCc1cncs1`: more than 3000 nM.
`CC(C)c1nc(CN(C)C(=O)N[C@H](C(=O)N[C@@H](Cc2ccccc2)C[C@H](O)[C@H](Cc2ccccc2)NC(=O)OCc2cncs2)C(C)C)cs1` [RITONAVIR]: in the data set on Liver microsomes, the IC50 is 40 nM. The same compound registered an AUC in the data set filed under Canis familiaris of 2.19 µg/mL. Moreover, in the data set “in vivo”, the Cmax was 1320 ng/mL.
